Measured values reported in patent US10238622B2, “Methods of treating and preventing/reducing the likelihood of Mesial temporal lobe epilepsy (TLE)” (priority 2009, dated 2019).

Assays:
EC L5 neurons [1] = experiment: GABAAergic PSP reversal potential, sharp microelectrode recording in acute brain slices 3 weeks post SE; type: cell-based, rat
Procedure: (§1) All experiments were performed on acute horizontal brain slices containing temporal neocortex, entorhinal cortex, subiculum and the ventral hippocampus. Control, or rats 2 or 3 weeks post-seizure, were anesthetized deeply with a mixture of ketamine and xylazine (85 and 15 mg/ml, respectively) and decapitated. The brains were removed rapidly and placed in an oxygenated (95% O2/5% CO2) ice-cold cutting solution containing (in mM): 3 KCl, 1.25 NaH2PO4, 6 MgSO4, 26 NaHCO3, 0.2 CaCl2, 10 glucose, 220 sucrose, and 0.43 ketamine. Slices (350 μm) were cut in ice-cold cutting solution with a vibratome (Dosaka DTK-1000) and transferred from there into Artificial Cerebro-Spinal Fluid (ACSF, in mM: 126 NaCl, 3 KCl, 1.25 NaH2PO4, 1 MgSO4, 26 NaHCO3, 2 CaCl2, and 10 glucose) equilibrated with 95% O2/5% CO2 at 34° C. temperature for recovery. After 1 hr ACSF was changed again, and the slices were held at room temperature until used for recording.
(§2) Individual slices were transferred to a recording chamber mounted on a fixed-stage microscope (Zeiss Axioskop, Jena, Germany) and superfused with warmed (34° C.), oxygenated ACSF at 2 ml/min. Intracellular recordings were made from EC layer 5 neurons with borosilicate glass sharp microelectrodes (80-150 MΩ) filled with either 1 M K2SO4, or 0.5 M potassium acetate/0.5 M KCl for lower electrode resistance, or 2 M CsSO4/0.1 M KCl for improved space clamp. […] Therefore all final recordings/data for bumetanide effects on GABAergic PSP reversal potential were obtained with microelectrodes filled with 1 M K2SO4 or 2 M CsSO4/0.1 M KCl.
(§3) Neurons were impaled in the medial entorhinal cortex just above the angular bundle, up to ¼ of cortex thickness, using a Nanostepper micropositioner (Scientific Precision Instruments, Oppenheim, Germany). Recordings were made using an Axoclamp 2B amplifier and digitized and recorded using an Axon Instruments Digidata 1322A (Molecular Devices, Union City, Calif.). Neurons with a RMP negative to −68 mV were tested with hyperpolarizing pulses to ˜−85 mV for the presence of Ih indicative of pyramidal neurons (Egorov et al., 2002; Egorov et al., 2003). […] Concentric bipolar stimulating electrodes (200 μm diameter, FHC Inc., ME, USA) were placed in layer 5 of EC, ˜150-250 μm from the recording electrode. Stimuli (70-100 μs, 100-800 nA) were controlled by a Master 8 programmable pulse generator connected to a stimulus isolation unit (A.M.P.I., Jerusalem, Israel). Full input-output relations for the EPSP and the IPSP were recorded, and stimulation intensities giving 70-90% of maximal response were used. Where indicated stimulation intensity was reduced to elicit 5-10% of maximal response.

EC L5 neurons [2] = experiment: Polysynaptic burst responses to single synaptic stimulation in acute brain slices 3 weeks post SE; type: cell-based, rat
Procedure: as §1, §2, §3
For these determinations, a polysynaptic burst was defined as a post-synaptic response lasting more than 150 ms at half amplitude, elicited from −75 mV<RMP<−68 mV.

Li-pilocarpine SE rats [3] = experiment: Seizures after acute bumetanide injection, video recordings, 12-17 weeks after SE (FIG. 12); type: in vivo, rat; details: bumetanide 0.2 mg/kg body weight i.p., 12-17 weeks after Li-pilocarpine SE, n=5 rats
Procedure: (§4) All procedures were approved by the Institutional Animal Care and Use Committee at the University of New Mexico Health Sciences Center and were in accordance with National Institutes of Health Guide for the Care and Use of Laboratory Animals. Our protocol for the experiments here was a slight modification of a protocol published by Andre et al. (Andre et al., 2007). Twenty four hours prior to seizure induction, male Wistar rats, 2-3 months old, were administered s.c. 3 mmol/kg lithium chloride dissolved in isotonic NaCl saline Pilocarpine was then administered s.c. (25 mg/kg in isotonic NaCl). Once generalized limbic convulsions began, subcutaneous needle EEG electrodes were placed to confirm the development of status epilepticus (SE), defined as the occurrence of continuous high amplitude EEG spiking (Ormandy et al., 1989). These needles were fashioned from 25 gauge hypodermic needles (Becton Dickinson), with the hub cut off and bent at 60 degree angles so they will stay in place. […] 12 hours after SE onset the EEG was recorded again for 5-10 min, and all rats had intermittent or organized, i.e. bursts of EEG spiking.
Five Li-pilocarpine SE rats were subjected to a sequence of bumetanide or vehicle injections (5% ethanol in physiological saline, i.p., dates given on bottom line), and seizures occurring in the following 8 hours were analyzed by video recordings.

Li-pilocarpine SE rats [4] = experiment: Spontaneous seizures with chronic bumetanide via the drinking water, 8 hour video recording (FIG. 18, 19); type: in vivo, rat
Procedure: as §4, with “place. One needle was inserted subcutaneously in the scalp over the parietal cortex and the other, which served as the reference electrode, over the scapula. […] Recording was then generally discontinued.” for “place.”, “spiking. […]” for “spiking.”

pilocarpine SE rat = experiment: Seizures provoked by open field exposure 6 weeks after end of chronic bumetanide treatment (FIG. 20); type: in vivo; details: 27 weeks post SE, 6 weeks after end of bumetanide treatment, within 15 min, n=6 rats per group
Procedure: as §4, with “place. One needle was inserted subcutaneously in the scalp over the parietal cortex and the other, which served as the reference electrode, over the scapula. […] Recording was then generally discontinued.” for “place.”, “spiking. […]” for “spiking.”

post SE rats = experiment: Entering-a-dark box behavior in an open field (FIG. 21); type: in vivo, rat; details: chronic bumetanide from day 16 post SE for 12 weeks, 8 rats; control rats 78%, untreated post SE rats 15%
Procedure: as §4, with “place. One needle was inserted subcutaneously in the scalp over the parietal cortex and the other, which served as the reference electrode, over the scapula. […] Recording was then generally discontinued.” for “place.”, “spiking. […]” for “spiking.”

adult rat TLE model = details: infusion of very high doses, first 2 weeks after SE; cited from earlier work
Li-pilocarpine SE rats [5] = experiment: Lithium-pilocarpine status epilepticus induction, drugs given 1 hour after SE onset; type: in vivo, rat; details: Diazepam 4 mg/kg i.m.; for effect on seizures (status epilepticus): given 1 hour after SE onset, Atropine sulfate 10 mg/kg s.c.
Procedure: as §4, with “place. One needle was inserted subcutaneously in the scalp over the parietal cortex and the other, which served as the reference electrode, over the scapula. […] Recording was then generally discontinued. Atropine sulfate (10 mg/kg s.c.) and Diazepam (4 mg/kg i.m.) were administered in order to improve survival, decrease anxiety and induce muscle relaxation.” for “place.”

Molecule: CCCCNc1cc(C(=O)O)cc(S(N)(=O)=O)c1Oc1ccccc1 [bumetanide]
- E(PSP) of an EC L5 neuron after a 20 min exposure to bumetanide (FIG. 10A) (EC L5 neurons [1]; 3 weeks after SE, CNQX 10 μM and APV 50 μM present, shifts from −29.7 mV): −60.9 mV
- reduction of driving force at −45 mV versus control rats (EC L5 neurons [1]; 3 weeks after SE, in the presence of bumetanide): ~42%
- driving force for Cl− at −45 mV in the presence of bumetanide (EC L5 neurons [1]; 3 weeks after SE, ˜26 mV in control rats): ~15 mV
- absolute voltage average E(PSP) during washout of bumetanide (EC L5 neurons [1]; 3 weeks post SE, n=5): −34.2±3.4 mV
- average PSP reversal potential relative to RMP (EC L5 neurons [1]; bumetanide 10 μM, EC L5 neurons 3 weeks post SE, RMP ˜−72 mV, more than +40 mV without drug): +10 mV
- neurons with a polysynaptic response after washout of bumetanide (EC L5 neurons [2]; 30 min washout, n=14): 35.1%
- decrease of response duration at half-maximal amplitude in bumetanide (EC L5 neurons [2]; bumetanide 10 μM, 3 weeks post SE): 36±9 % of the control response
- neurons with a polysynaptic response in bumetanide (EC L5 neurons [2]; bumetanide 10 μM, cells from rats 3 weeks after pilocarpine insult, n=14, 64.8% before drug): 11.6%
- response duration at half-maximal amplitude during washout of bumetanide (EC L5 neurons [2]; recovered to, relative to control response): 75±11%
- seizures occurring in the 8 hours following injection (Li-pilocarpine SE rats [3]): suppression of seizures
- rats in which bumetanide prevented seizures completely (Li-pilocarpine SE rats [4]; bumetanide via the drinking water, 0.65±0.13 mg/day, two other rats had reduced seizures): 4 rats
- seizure occurrence as % of seizures in time post SE-matched control SE rats (Li-pilocarpine SE rats [4]; three and six weeks after end of 20 weeks chronic bumetanide via drinking water, n=6 rats per group): 15-22%
- seizures provoked by open field exposure as % of time post SE-matched control SE rats (pilocarpine SE rat): less than 15%
- trials in which rats entered the dark box (post SE rats): 67 % of trials
- suppression of SRS by bumetanide treatment (adult rat TLE model): complete failure

Molecule: CN1[C@@H]2CC[C@H]1CC(OC(=O)C(CO)c1ccccc1)C2.CN1[C@@H]2CC[C@H]1CC(OC(=O)C(CO)c1ccccc1)C2.O=S(=O)(O)O (stereo partly shown) [atropine, Atropine sulfate]
- effect on seizures (status epilepticus) (Li-pilocarpine SE rats [5]): Nor did atropine stop seizures

Molecule: picrotoxin
- number of spikes in polysynaptic burst responses in picrotoxin (EC L5 neurons [2]; picrotoxin 100 μM, 3 weeks post SE, n=8 neurons, 9.8±0.8 before drug): 7.9±0.7 spikes per response
- burst duration in picrotoxin, result in words (EC L5 neurons [2]; picrotoxin 100 μM, FIG. 11D): did not reach statistical significance
- reduction of action potential amplitudes in the averaged burst responses (EC L5 neurons [2]; picrotoxin 100 μM, averages of ten responses, n=8, p=0.094): 10.5±3.4%
- decrease of the duration of polysynaptic bursts (EC L5 neurons [2]; picrotoxin 100 μM, trend, n=8, p=0.094): 10.5%

Molecule: CN1C(=O)CN=C(c2ccccc2)c2cc(Cl)ccc21 [Diazepam]
- muscle relaxation (Li-pilocarpine SE rats [5]): induced muscle relaxation within one hour
- effect on seizures (status epilepticus) (Li-pilocarpine SE rats [5]): did not stop seizures
